What was measured:
[1] = molecular target: T1, rat liver ornithine decarboxylase (Rattus norvegicus, UniProt P09057); test: time-dependent inhibition of rat liver ODC (in vitro); format: biochemical
T1 construct: rat liver ornithine decarboxylase in vitro; from tissue; host or cells: rat liver
T1 sequence (P09057 1-461): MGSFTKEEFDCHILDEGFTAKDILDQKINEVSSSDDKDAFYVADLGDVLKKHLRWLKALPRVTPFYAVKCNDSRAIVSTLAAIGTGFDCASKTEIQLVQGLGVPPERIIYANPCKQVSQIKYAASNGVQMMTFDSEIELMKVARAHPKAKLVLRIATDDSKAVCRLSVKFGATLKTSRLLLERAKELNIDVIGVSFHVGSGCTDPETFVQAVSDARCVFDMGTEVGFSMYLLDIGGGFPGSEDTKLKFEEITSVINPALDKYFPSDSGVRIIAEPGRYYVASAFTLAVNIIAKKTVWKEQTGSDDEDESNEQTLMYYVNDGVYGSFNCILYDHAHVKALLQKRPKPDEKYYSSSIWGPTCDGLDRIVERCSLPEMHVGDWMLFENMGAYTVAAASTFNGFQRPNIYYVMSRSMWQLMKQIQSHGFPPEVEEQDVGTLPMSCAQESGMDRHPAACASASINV

ornithine decarboxylase = molecular target: T2, ornithine decarboxylase (Rattus norvegicus, UniProt P09057); test: ODC activity remaining in rat tissues after a single dose (in vivo); parameters: species or system rats
T2 construct: from tissue; host or cells: rat ventral prostate and thymus
T2 sequence (P09057 1-461): T1 sequence (P09057 1-461)
Procedure: The ODC inhibitory activity of a compound can be determined in vitro by the method described by B. Metcalf et al., J. Am. Chem. Soc., 100, 2551 (1978) and in vivo by the method of C. Danzin, Life Sciences, 24, 519 (1979).
2-Fluoromethyl-2,5-diaminopentanoic acid and 2-fluoromethyl-2,6-diaminohexanoic acid were tested for inhibition of ornithine decarboxylase in rats according to the procedure of C. Danzin et al., Life Sciences, 24, 519 (1979).

female mice = test: contragestational activity in mice; format: in vivo; details: for Resorption nodules gravid female / Viable feti gravid female: autopsy day 18
Procedure: 2-Fluoromethyl-2,5-diaminopentanoic acid (MFM) was tested for contragestational activity in mice according to the procedure of J. Fozard et al., Eur. J. Pharmacol., 65, 379 (1980).
In this experiment, the compound was given at the doses stated, subcutaneously (s.c.), every 6 hours starting at 12:00 on day 8 of gestation (4 doses). Animals were autopsied on day 18 and the numbers of viable feti and resorption nodules recorded.

prostatic growth in rats = test: effect on prostatic growth in rats; format: in vivo; details: for % Weight loss of prostate: oral administration for 3 days
Text: Accordingly, the compounds of Formula I can be used as contragestational agents (abortifacients) in female animals when it is desired to terminate early pregnancy. The use of 2-fluoromethyl-2,5-diaminopentanoic acid, and derivatives thereof, as a contragestational agent is described and claimed in U.S. Pat. No. 4,309,442 of P. Bey and M. Jung. […] Danzin et al., Biochem. J., 202, 175 (1982). Accordingly, the compounds of Formula I can be used to treat benign prostatic hypertrophy. The use of 2-fluoromethyl-2,5-diaminopentanoic acid, and derivatives thereof, in the treatment of benign prostatic hypertrophy is described and claimed in the U.S. Pat. No. 4,330,559 of P. Bey and M. Jung.
2-Fluoromethyl-2,5-diaminopentanoic acid was tested for its effect on prostatic growth in rats according to the procedure of C. Danzin et al., Biochem. J., 202, 175 (1982).
(a) Administered dissolved in drinking water employed as only water source for the animals.

ODC of P. aeruginosa = molecular target: T3, ODC of P. aeruginosa (Pseudomonas aeruginosa, UniProt Q9HVQ3); test: ODC inhibition in intact P. aeruginosa cells; format: cell-based; details: in words
T3 sequence (Q9HVQ3 1-387): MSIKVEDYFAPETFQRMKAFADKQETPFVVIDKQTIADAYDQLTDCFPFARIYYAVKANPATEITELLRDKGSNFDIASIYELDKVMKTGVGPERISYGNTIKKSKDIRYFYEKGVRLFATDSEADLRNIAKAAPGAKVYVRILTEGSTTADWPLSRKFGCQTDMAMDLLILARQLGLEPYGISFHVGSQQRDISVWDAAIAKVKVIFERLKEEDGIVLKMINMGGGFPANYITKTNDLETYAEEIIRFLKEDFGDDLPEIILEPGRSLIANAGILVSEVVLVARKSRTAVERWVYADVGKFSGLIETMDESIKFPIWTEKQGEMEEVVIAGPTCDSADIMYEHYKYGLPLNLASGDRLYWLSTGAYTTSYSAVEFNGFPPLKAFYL
Text: However, by itself, α-MFMO has no effect on cell growth. Thus, […] inhibitory activity is useful only when used in combination with agents which will block other routes of polyamine biosynthesis, e.g. with both (a) α-difluoromethyl arginine, which inhibits arginine decarboxylase, and (b) dicyclohexylammonium sulfate, which inhibits spermidine synthesis.

E. coli (M.R.C; 59) = test: growth and polyamine content of E. coli cultures; format: cell-based; details: compound by itself
[2] = test system: P. aeruginosa (A.T.C.C. 9027); test: growth and polyamine content of P. aeruginosa cultures; format: cell-based; details: compound by itself
[3] = 6 hours after single oral dose, 12.5 mg/kg
[4] = 6 hours after single oral dose, 25 mg/kg
[5] = 6 hours after single oral dose, 50 mg/kg
[6] = 6 hours after single oral dose, 100 mg/kg
[7] = 50 mg/kg s.c. every 6 hours from day 8 of gestation (4 doses)
[8] = 100 mg/kg s.c. every 6 hours from day 8 of gestation (4 doses)
[9] = 200 mg/kg s.c. every 6 hours from day 8 of gestation (4 doses)
[10] = 400 mg/kg s.c. every 6 hours from day 8 of gestation (4 doses)

SMILES: NCCCC(N)(CF)C(=O)O (centres unmarked) [MFMO, 2-Fluoromethyl-2,5-diaminopentanoic acid]
- Ki ([1]; concentration of compound which gives half-maximal rate of inhibition, time-dependent inhibition): 75 µM
- t1/2 at 10 μM ([1]; half-life of inhibition at 10 μM inhibitor): 14 min
- T1/2 ([1]; half-life of inhibition at infinite concentration of inhibitor): 1.6 min
- ODC Activity remaining in ventral prostate (ornithine decarboxylase; 5 hours after single i.p. injection, 12.5 mg/kg): 70.5 ± 12.5 % Control
- ODC Activity remaining in ventral prostate (ornithine decarboxylase; 5 hours after single i.p. injection, 25 mg/kg): 77.0 ± 10.5 % Control
- ODC Activity remaining in ventral prostate (ornithine decarboxylase; 5 hours after single i.p. injection, 50 mg/kg): 57.0 ± 13.0 % Control
- ODC Activity remaining in ventral prostate (ornithine decarboxylase; 5 hours after single i.p. injection, 100 mg/kg): 14.5 ± 10.0 % Control
- ODC Activity remaining in ventral prostate (ornithine decarboxylase; 5 hours after single i.p. injection, 200 mg/kg): 15.5 ± 1.0 % Control
- ODC Activity remaining in thymus (ornithine decarboxylase; [3]): 81 ± 6 % Control
- ODC Activity remaining in ventral prostate (ornithine decarboxylase; [3]): 98 ± 18 % Control
- ODC Activity remaining in thymus (ornithine decarboxylase; [4]): 93 ± 8 % Control
- ODC Activity remaining in ventral prostate (ornithine decarboxylase; [4]): 67 ± 7 % Control
- ODC Activity remaining in thymus (ornithine decarboxylase; [5]): 99 ± 5 % Control
- ODC Activity remaining in ventral prostate (ornithine decarboxylase; [5]): 45 ± 7 % Control
- ODC Activity remaining in thymus (ornithine decarboxylase; [6]): 87 ± 6 % Control
- ODC Activity remaining in ventral prostate (ornithine decarboxylase; [6]): 44 ± 6 % Control
- Resorption nodules gravid female (female mice; [7]): 3.3 ± 1.1
- Viable feti gravid female (female mice; [7]): 9.1 ± 1.5
- Resorption nodules gravid female (female mice; [8]): 2.3 ± 0.6
- Viable feti gravid female (female mice; [8]): 12.7 ± 0.9
- Resorption nodules gravid female (female mice; [9]): 4.2 ± 1.2
- Viable feti gravid female (female mice; [9]): 9.2 ± 1.5
- Resorption nodules gravid female (female mice; [10]): 8.9 ± 1.9
- Viable feti gravid female (female mice; [10]): 5.4 ± 1.5
- interruption of embryogenesis (female mice; female mice, method of Fozard): capable of interrupting embryogenesis
- % Weight loss of prostate (prostatic growth in rats; 3.75 g/l in drinking water): -10%
- % Weight loss of prostate (prostatic growth in rats; 7.5 g/l in drinking water): -14%
- % Weight loss of prostate (prostatic growth in rats; 15 g/l in drinking water): -19%
- weight of the ventral prostate (prostatic growth in rats; rats, method of Danzin): significant decrease
- inhibition of ODC of P. aeruginosa in intact cells (ODC of P. aeruginosa): inhibit
- effect on cell growth (E. coli (M.R.C; 59)): no effect
- effect on cell growth [2]: no effect

Reference: patent publication US4866206A, “2-Halomethyl derivatives of 2-amino acids” (Merrell Dow France et Cie, priority 1988, dated 1989)
